The results in this text go back to patent US20250195474A1, “Piezo Inhibition for Wound Healing” (priority 2022, published 2025).

The test system of one experiment is wounds. In words: CODEX spatial protein analysis of POD 14 wounds. In kind it is in vivo, mouse. The note with it: POD 14, vs PBS. From the text:
(§1) To spatially phenotype the pig specimens, we used Co-Detection by Indexing (CODEX), a novel assay in which markers are labeled with oligonucleotide-conjugated antibodies and iteratively imaged between cyclic additions and washouts of dye-labeled oligonucleotides. A custom CODEX panel was designed to assess wound cells within the tissue see Table 1). In brief, primary antibodies were individually barcoded and validated using the commercial supplier's protocols. OCT for mouse or paraffin blocks for human xenograft (n=3 per group) were sectioned at 8 μm thickness onto coverslips for CODEX antibody staining. Antigens were retrieved by standard citrate-EDTA processing prior to addition of CODEX antibodies. Using a CODEX-integrated Keyence BZ-X instrument (Akoya Biosciences) image acquisition was then performed. Using software from Akoya Biosciences the raw images were process, with cell segmentation, and rendering.
(§2) The CODEX was visualized using Akoya Biosciences Multiplex Analysis Viewer (MAV) in ImageJ. The resulting .fcs files were then concatenated in FlowJo and imported into the Monocle3 and STvEA R packages for further analysis. After debris removal, the processed UMAP manifold was analyzed through Monocle3 with a post-manifold threshold of >10,000 cells per cluster. Analysis of the protein staining patterns was then used to assign cell types. The cell interactions were then inferred using STvEA for cell types at >2.5% of total abundance at k=20 nearest neighbors to quantify cell spatial interactions, and differential interaction maps were generated using graph scores.

The subject of another experiment is existing scars. In words: CODEX spatial protein analysis of treated existing scars. In kind it is in vivo, mouse.
Excerpt: as §1, §2
To phenotype the spatial environment in the context of rescuing existing scars, CODEX was further employed to spatially define protein expression, cell populations, and associated cell-cell interactions (FIG. 10A; markers shown in Table 1 middle column, 39A). […]

The test system of experiment [1] is human foreskin xenograft wounds. In words: Human foreskin xenograft wound model. It counts as in vivo. The note with it: POD 14. How it is done:
For the xenograft model, adult immunocompromised CD-1 nude mice were purchased from The Jackson Laboratory (Bar Harbor, ME). Mice were maintained at the Stanford University Research Animal Facility, SIM-1 Barrier Facility in accordance with Stanford University guidelines. All experiments were performed under an approved APLAC protocol (APLAC #11048). 3 mice were used for each group.
Discarded postnatal human foreskin samples were collected after circumcision at the Lucille Packard Children's Hospital at Stanford under a Stanford University Institutional Review Board (IRB) approved protocol (IRB #45219). Samples were not used if collected >8 hours after circumcision; samples were kept in Dulbecco's Modified Eagle Medium (ThermoFisher Scientific™, Waltham, MA) on ice until grafting. Foreskin was prepared by removal of all subcutaneous tissue, including muscle, and divided into 1 cm sections to be grafted.
Nude mice were induced and maintained with 2-4% isoflurane (Product: 502017, MWI Veterinary Supply Co.®; Boise, ID) at a rate of 2 L/min. While anesthetized, Betadine Surgical Scrub Veterinary (Avrio Health L.P.™, Stamford, CT) and sterile alcohol prep pads (FisherScientific™, Pittsburgh, PA) were used to prepare the dorsum. A 1.2 cm full-thickness excision of dorsal skin was created with forceps and sharp scissors. The foreskin graft was then placed into the full-thickness wound. […]
Background: In xenograft studies the graft and the host belong to different species.

The next experiment deals with human fibroblasts. In words: Human fibroblasts in 3D collagen gels with stretching. It counts as cell-based. From the text: To further confirm that human cluster 3 represented a pro-regenerative ADF population we utilized our in vitro collagen gel system. We first, FACS sorted human fibroblasts based on expression of cluster 3 markers including ROBO2, CD29, and SFRP2 and seeded them into 3D collagen gels (FIG. 42B). […] In contrast, stretching with P1 inhibition kept the fibroblasts in a more adipocyte-like phenotype, with high expression of PPARg and low expression of Collagen Type I, similar to fibroblasts in an unstretched state (FIG. 42B).
To determine if P1i may activate […] Wnt pathways to maintain cluster 3 in an adipocyte-like phenotype, we applied Wnt5a recombinant protein to the in vitro collagen gel system (FIG. 42C). […] In summary, P1i treatment may revert fibroblasts towards the mechanically naïve fibroblast pro-regenerative fibroblast population through the activation of canonical Wnt pathways and thereby preventing the transition to pro-scarring phenotypes defined by CJUN and VCAM1 expression.

The next experiment deals with wound cells. In words: scRNA-seq and CellChat analysis of POD 14 wounds.

No end group written: not given here.

Turning to “GsMTx4 (GCLEFWWKCNPNDDKCCRPKLKCSKLFKLCNFSF; ends and bridges not checked; cysteine pairing not given here; UniProt Q7YT39 47-80, looked up) [P1i]”, in the experiment with wounds, the “Lef1 (new hair follicle formation)” value is on record as “highly expressed”; the “adipocyte-fibroblast spatial interactions (CODEX)” value is on record as “reduced adipocyte-fibroblast interactions”; the “individual adipocyte-fibroblast subpopulation interactions (CODEX)” value is “enriching the interactions of adipocyte cluster 2 with fibroblast clusters 2 and 4”. In the experiment with existing scars (POD 60, 105 and 150), the “adipocyte cluster 2 interactions with epithelial cells” value is “interacted more strongly with epithelial cells” and the “expression of mechanical markers” value is “PBS treated wounds showed higher expression of mechanical markers”. Moreover, the “interactions mediated by adipocyte clusters” value in the experiment with existing scars (vs PBS treated scars) is recorded as “enriched interactions mediated by adipocyte cluster 2”. Also, in experiment [1], the ECM ultrastructure entry is reported as “indistinguishable from that of unwounded xenograft skin”. In addition, in the experiment with human fibroblasts, the “phenotype of human fibroblasts (PPARg, Collagen Type 1)” value was “a more adipocyte like phenotype with high expression of PPARg and low expression of Collagen Type 1”. Further, the “relative adipocytes and fibroblasts among sequenced wound cells” value in the experiment on wound cells (POD 14) was “relatively more adipocytes and fewer fibroblasts”. Besides, in the experiment with wound cells (POD 14, vs control wounds), the “CellChat interactions between cluster 5 fibroblasts and adipocytes” value is “enhanced interactions between cluster 5 fibroblasts and adipocytes”; the “CellChat signaling of adipocyte pathways (Leptin, Chemerin, PD-L1)” value is “enhanced signaling of known adipocyte pathways”; the “CellChat signaling of cluster 5 fibroblasts with other cell types” value was “increase in signaling between cluster 5 fibroblasts and most other cell types”.
